Legend:
[1] = target: GDP-bound NRAS wild-type protein (Homo sapiens, UniProt P01111); test: Binding to NRAS by surface plasmon resonance (SPR), Single Cycle Kinetics; conditions: KD ratio, GDP-bound NRAS wild-type vs GDP-bound KRAS wild-type, SPR
[2] = target: GDP-bound HRAS wild-type protein (Homo sapiens, UniProt P01112); test: Binding to HRAS by surface plasmon resonance (SPR), Single Cycle Kinetics; conditions: KD ratio, GDP-bound HRAS wild-type vs GDP-bound KRAS wild-type, SPR
Chain of GDP-bound HRAS wild-type protein (P01112 whole entry): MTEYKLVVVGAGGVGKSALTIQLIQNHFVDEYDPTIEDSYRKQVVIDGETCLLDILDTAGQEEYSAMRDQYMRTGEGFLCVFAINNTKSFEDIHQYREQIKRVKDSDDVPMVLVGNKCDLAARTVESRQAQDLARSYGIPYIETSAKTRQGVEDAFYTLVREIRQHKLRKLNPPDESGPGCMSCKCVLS

Chain of GDP-bound NRAS wild-type protein (P01111 whole entry): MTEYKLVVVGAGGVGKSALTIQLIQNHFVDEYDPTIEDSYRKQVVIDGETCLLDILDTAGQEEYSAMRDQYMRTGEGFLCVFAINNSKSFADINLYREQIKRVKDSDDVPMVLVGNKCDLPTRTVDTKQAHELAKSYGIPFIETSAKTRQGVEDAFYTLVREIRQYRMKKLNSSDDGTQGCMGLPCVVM

SMILES	NRAS/KRAS (ratio of KD value for NRAS to KD value for KRAS) [1]	HRAS/KRAS (ratio of KD value for HRAS to KD value for KRAS) [2]
CCO[C@@H]1C[C@H]2C(=O)NC3(CC(C)(C)C3)C(=O)N(C)[C@@H](C3CCCC3)C(=O)N(C)[C@H](C(=O)N(C)C)CC(=O)N(C)[C@@H](CC)C(=O)N[C@@H]([C@@H](C)CC)C(=O)N(C)CC(=O)N(C)[C@H]3C/C=C\CCN(C3=O)[C@@H](Cc3ccc(C)cc3)C(=O)N(C)CC(=O)N[C@@H](CCc3ccc(C(F)(F)F)c(OC)c3)C(=O)N2C1 [PP1873]	A (a compound having 10 or more and less than 20 is denoted as A)	B (a compound having 3 or more and less than 10 is denoted as B)
CC[C@H](C)[C@@H]1NC(=O)[C@H](CC)N(C)C(=O)C[C@@H](C(=O)N(C)CC)N(C)C(=O)[C@H](C2CCCC2)N(C)C(=O)C2(CC(C)(C)C2)NC(=O)[C@@H]2C[C@H](C)CN2C(=O)[C@H](CCc2ccc(C(F)(F)F)c(Cl)c2)NC(=O)CN(C)C(=O)[C@H](Cc2ccc(C)cc2)N2CC/C=C\C[C@@H](C2=O)N(C)C(=O)CN(C)C1=O [PP1874]	A (a compound having 10 or more and less than 20 is denoted as A)	A (a compound having 10 or more and less than 20 is denoted as A)
CC[C@H](C)[C@@H]1NC(=O)[C@H](CC)N(C)C(=O)C[C@@H](C(=O)N(C)CC)N(C)C(=O)[C@H](C2CCCC2)N(C)C(=O)C2(CC(C)(C)C2)NC(=O)[C@@H]2C[C@@H](C)CN2C(=O)[C@H](CCc2ccc(C(F)(F)F)c(Cl)c2)NC(=O)CN(C)C(=O)[C@H](Cc2ccc(C)cc2)N2CC/C=C\C[C@@H](C2=O)N(C)C(=O)CN(C)C1=O [PP1876]	A (a compound having 10 or more and less than 20 is denoted as A)	A (a compound having 10 or more and less than 20 is denoted as A)
CCO[C@@H]1C[C@H]2C(=O)NC3(CCC3)C(=O)N(C)[C@@H](C3CCCC3)C(=O)N(C)[C@H](C(=O)N(C)CC)CC(=O)N(C)[C@@H](CC3CC3)C(=O)N[C@@H]([C@@H](C)CC)C(=O)N(C)CC(=O)N(C)[C@H]3C/C=C\CCN(C3=O)[C@@H](Cc3ccc(C)cc3)C(=O)N(C)CC(=O)N[C@@H](CCc3ccc(C(F)(F)F)c(OC)c3)C(=O)N2C1 [PP1879]	A (a compound having 10 or more and less than 20 is denoted as A)	B (a compound having 3 or more and less than 10 is denoted as B)
CCO[C@@H]1C[C@H]2C(=O)NC3(CC(C)(C)C3)C(=O)N(C)[C@@H](C3CCCC3)C(=O)N(C)[C@H](C(=O)N(C)CC)CC(=O)N(C)[C@@H](CC)C(=O)N[C@@H]([C@@H](C)CC)C(=O)N(C)CC(=O)N(C)[C@H]3C/C=C\CCN(C3=O)[C@@H](Cc3ccc(C)cc3)C(=O)N(C)CC(=O)N[C@@H](CCc3ccc(C(F)(F)F)c(Cl)c3)C(=O)N2C1 [PP1880]	A (a compound having 10 or more and less than 20 is denoted as A)	B (a compound having 3 or more and less than 10 is denoted as B)
CCO[C@@H]1C[C@H]2C(=O)NC3(CC(C)(C)C3)C(=O)N(C)[C@@H](C3CCCC3)C(=O)N(C)[C@H](C(=O)N(CC)CC)CC(=O)N(C)[C@@H](CC)C(=O)N[C@@H]([C@@H](C)CC)C(=O)N(C)CC(=O)N(C)[C@H]3C/C=C\CCN(C3=O)[C@@H](Cc3ccc(C)cc3)C(=O)N(C)CC(=O)N[C@@H](CCc3ccc(C(F)(F)F)c(OC)c3)C(=O)N2C1 [PP1881]	A (a compound having 10 or more and less than 20 is denoted as A)	A (a compound having 10 or more and less than 20 is denoted as A)
CCO[C@@H]1C[C@H]2C(=O)NC3(CC(C)(C)C3)C(=O)N(C)[C@@H](C3CCCC3)C(=O)N(C)[C@H](C(=O)N(CC)CC)CC(=O)N(C)[C@@H](CC)C(=O)N[C@@H]([C@@H](C)CC)C(=O)N(C)CC(=O)N(C)[C@H]3C/C=C\CCN(C3=O)[C@@H](Cc3ccc(C)cc3)C(=O)N(C)CC(=O)N[C@@H](CCc3ccc(C(F)(F)F)c(Cl)c3)C(=O)N2C1 [PP1883]	A (a compound having 10 or more and less than 20 is denoted as A)	A (a compound having 10 or more and less than 20 is denoted as A)
CC[C@H](C)[C@@H]1NC(=O)[C@H](CC(C)C)N(C)C(=O)C[C@@H](C(=O)N(CC)CC)N(C)C(=O)[C@H](C2CCCC2)N(C)C(=O)C2(CCC2)NC(=O)[C@@H]2C[C@H](C)CN2C(=O)[C@H](CCc2ccc(C(F)(F)F)c(OC)c2)NC(=O)CN(C)C(=O)[C@H](Cc2ccc(C)cc2)N2CC/C=C\C[C@@H](C2=O)N(C)C(=O)CN(C)C1=O [PP1885]	AA (a compound having 20 or more is denoted as AA)	A (a compound having 10 or more and less than 20 is denoted as A)
CCO[C@@H]1C[C@H]2C(=O)NC3(CC(C)(C)C3)C(=O)N(C)[C@@H](C3CCCC3)C(=O)N(C)[C@H](C(=O)N(C)CC)CC(=O)N(C)[C@@H](CC)C(=O)N[C@@H]([C@@H](C)CC)C(=O)N(C)CC(=O)N(C)[C@H]3C/C=C\CCN(C3=O)[C@@H](Cc3ccc(C)cc3)C(=O)N(C)CC(=O)N[C@@H](CCc3cc(F)c(C(F)(F)F)c(F)c3)C(=O)N2C1 [PP1886]	A (a compound having 10 or more and less than 20 is denoted as A)	B (a compound having 3 or more and less than 10 is denoted as B)
CCO[C@@H]1C[C@H]2C(=O)NC3(CCC3)C(=O)N(C)[C@@H](C3CCCC3)C(=O)N(C)[C@H](C(=O)N(CC)CC)CC(=O)N(C)[C@@H](CC(C)C)C(=O)N[C@@H]([C@@H](C)CC)C(=O)N(C)CC(=O)N(C)[C@H]3C/C=C\CCN(C3=O)[C@@H](Cc3ccc(C)cc3)C(=O)N(C)CC(=O)N[C@@H](CCc3ccc(C(F)(F)F)c(OC)c3)C(=O)N2C1 [PP1887]	A (a compound having 10 or more and less than 20 is denoted as A)	B (a compound having 3 or more and less than 10 is denoted as B)
CCC[C@H]1C(=O)N[C@@H]([C@@H](C)CC)C(=O)N(C)CC(=O)N(C)[C@H]2C/C=C\CCN(C2=O)[C@@H](Cc2ccc(C)cc2)C(=O)N(C)CC(=O)N[C@@H](CCc2ccc(C(F)(F)F)c(OC)c2)C(=O)N2C[C@@H](C)C[C@H]2C(=O)NC2(CC(C)(C)C2)C(=O)N(C)[C@@H](C2CCCC2)C(=O)N(C)[C@H](C(=O)N(C)C)CC(=O)N1C [PP1888]	A (a compound having 10 or more and less than 20 is denoted as A)	B (a compound having 3 or more and less than 10 is denoted as B)
CCC[C@H]1C(=O)N[C@@H]([C@@H](C)CC)C(=O)N(C)CC(=O)N(C)[C@H]2C/C=C\CCN(C2=O)[C@@H](Cc2ccc(C)cc2)C(=O)N(C)CC(=O)N[C@@H](CCc2ccc(C(F)(F)F)c(OC)c2)C(=O)N2C[C@@H](C)C[C@H]2C(=O)NC2(CC(C)(C)C2)C(=O)N(C)[C@@H](C2CCCC2)C(=O)N(C)[C@H](C(=O)N(C)CC)CC(=O)N1C [PP1889]	A (a compound having 10 or more and less than 20 is denoted as A)	B (a compound having 3 or more and less than 10 is denoted as B)
